# Laboratory results from patent US11713338B2, “Cyclic peptides multimers targeting α-4-β-7 integrin” (priority 2016, dated 2023).
# Target: T1, recombinant integrin α4β7 (Homo sapiens, UniProt P13612+P26010, DEL724-798)
# T1 construct: purchased R&D Systems 5397-A3-050
# T1 sequence (P13612 34-970 limits assumed): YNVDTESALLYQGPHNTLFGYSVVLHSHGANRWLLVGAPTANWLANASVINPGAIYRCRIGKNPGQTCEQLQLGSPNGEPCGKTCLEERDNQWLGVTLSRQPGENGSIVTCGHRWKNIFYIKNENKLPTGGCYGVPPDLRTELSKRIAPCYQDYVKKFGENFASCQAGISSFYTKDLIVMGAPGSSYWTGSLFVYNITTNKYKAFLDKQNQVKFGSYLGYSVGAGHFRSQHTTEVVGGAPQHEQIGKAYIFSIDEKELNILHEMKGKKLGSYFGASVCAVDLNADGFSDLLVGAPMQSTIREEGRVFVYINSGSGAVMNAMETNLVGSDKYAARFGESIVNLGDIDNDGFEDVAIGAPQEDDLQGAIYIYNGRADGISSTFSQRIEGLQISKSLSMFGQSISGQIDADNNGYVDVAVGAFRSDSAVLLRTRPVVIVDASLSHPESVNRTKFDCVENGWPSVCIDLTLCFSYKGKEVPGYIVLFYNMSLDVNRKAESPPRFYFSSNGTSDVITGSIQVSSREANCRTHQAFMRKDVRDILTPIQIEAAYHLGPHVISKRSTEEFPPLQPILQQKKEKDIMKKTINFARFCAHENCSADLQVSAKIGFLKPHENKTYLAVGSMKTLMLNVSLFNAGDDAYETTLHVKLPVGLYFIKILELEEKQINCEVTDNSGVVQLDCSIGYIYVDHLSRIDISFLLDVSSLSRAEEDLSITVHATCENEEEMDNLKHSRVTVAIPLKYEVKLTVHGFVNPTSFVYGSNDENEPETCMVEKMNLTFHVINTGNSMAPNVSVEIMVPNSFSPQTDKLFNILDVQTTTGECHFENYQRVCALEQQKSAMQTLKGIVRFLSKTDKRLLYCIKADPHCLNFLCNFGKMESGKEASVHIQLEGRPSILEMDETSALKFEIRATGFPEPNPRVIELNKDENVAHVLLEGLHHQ
# T1 sequence (P26010 20-723 limits assumed): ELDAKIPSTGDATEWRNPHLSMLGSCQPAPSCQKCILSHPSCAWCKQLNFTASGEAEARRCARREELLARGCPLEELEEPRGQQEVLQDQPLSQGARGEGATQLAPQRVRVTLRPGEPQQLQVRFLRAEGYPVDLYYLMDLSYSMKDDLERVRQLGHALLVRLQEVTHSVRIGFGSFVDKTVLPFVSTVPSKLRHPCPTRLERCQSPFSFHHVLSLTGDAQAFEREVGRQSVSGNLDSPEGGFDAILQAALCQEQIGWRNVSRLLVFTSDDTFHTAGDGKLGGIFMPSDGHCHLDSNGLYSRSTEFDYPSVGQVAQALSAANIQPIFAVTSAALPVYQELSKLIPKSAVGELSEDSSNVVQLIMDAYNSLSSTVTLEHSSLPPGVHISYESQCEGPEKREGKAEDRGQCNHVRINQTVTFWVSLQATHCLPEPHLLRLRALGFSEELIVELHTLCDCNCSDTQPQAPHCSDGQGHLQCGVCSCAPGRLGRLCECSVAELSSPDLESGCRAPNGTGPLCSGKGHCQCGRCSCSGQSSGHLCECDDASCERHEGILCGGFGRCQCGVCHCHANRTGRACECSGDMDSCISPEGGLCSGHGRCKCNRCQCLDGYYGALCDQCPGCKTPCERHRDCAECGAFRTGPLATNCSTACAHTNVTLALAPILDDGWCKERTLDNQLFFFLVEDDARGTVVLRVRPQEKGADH
# Test: Integrin α4β7—MAdCAM-1 ELISA competition assay
# Type: binding
# Conditions: for IC50: read-out: ELISA a4b7 Assay IC50; for ELISA Assay Ratio b1/b7: ratio of a4b1 to a4b7 ELISA IC50
Structure (SMILES),IC50 [nM],ELISA Assay Ratio b1/b7
CC(C)C[C@@H]1NC(=O)C[C@H](CCCCN)NC(=O)[C@H](Cc2ccccc2-c2cccnc2)NC(=O)[C@@H]2CCCN2[C@H](C(=O)NC(C)(C)C)[C@H](C)NC(=O)[C@H]([C@@H](C)O)NC(=O)[C@H](CC(=O)O)NC1=O [Compound 292],30,
CC(C)C[C@@H]1NC(=O)C[C@H](CCCCN)NC(=O)[C@H](Cc2ccc(O)cc2)NC(=O)[C@@H]2CCCN2[C@H](C(=O)NC(C)(C)C)[C@H](C)NC(=O)[C@H]([C@@H](C)OCc2ccccc2)NC(=O)[C@H](CC(=O)O)NC1=O [Compound 200],134,2.6
CC(C)C[C@@H]1NC(=O)[C@@H](Cc2ccncc2)NC(=O)[C@@H]2CCCN2[C@H](C(=O)NC(C)(C)C)[C@H](C)NC(=O)[C@H]([C@@H](C)O)NC(=O)[C@H](CC(=O)O)NC1=O [Compound 62],27,4.3
C[C@@H]1NC(=O)[C@H]([C@@H](C)O)NC(=O)[C@H](CC(=O)O)NC(=O)[C@H](CC(C)(C)C)NC(=O)c2ccc(-c3ccnc4ccccc34)c(c2)CNC(=O)[C@@H]2CCCN2[C@@H]1C(=O)NC(C)(C)C [Compound 355],48,
CC(C)C[C@@H]1NC(=O)[C@H](Cc2ccncc2)NC(=O)[C@@H]2CCCN2[C@H](C(=O)NC(C)(C)C)[C@H](C)NC(=O)[C@H]([C@@H](C)O)NC(=O)[C@H](CC(=O)O)NC1=O [Compound 54],190,
CC(C)C[C@@H]1NC(=O)c2cccc(c2)CN(Cc2ccccc2)C(=O)[C@@H]2CCCN2[C@H](C(=O)NC(C)(C)C)[C@H](C)NC(=O)[C@H]([C@@H](C)O)NC(=O)[C@H](CC(=O)O)NC1=O [Compound 357],102,
CC[C@H](C)[C@@H]1NC(=O)[C@H](CC(=O)O)NC(=O)[C@H](CC(C)C)NC(=O)[C@H](Cc2ccc(O)cc2)NC(=O)[C@@H]2CCCN2[C@H](C(=O)NC(C)(C)C)[C@H](C)NC1=O [Compound 53],182,
CC(C)C[C@@H]1NC(=O)c2ccc(-c3cccc(CN)c3)c(c2)CNC(=O)[C@@H]2CCCN2[C@H](C(=O)NC(C)(C)C)[C@H](C)NC(=O)[C@H]([C@@H](C)O)NC(=O)[C@H](CC(=O)O)NC1=O [Compound 382],12,
CC[C@H](C)[C@@H]1NC(=O)[C@H](CC(=O)O)NC(=O)[C@H](CC(C)C)NC(=O)[C@H](Cc2c[nH]c3ccccc23)NC(=O)[C@@H]2CCCN2[C@H](C(=O)NC(C)(C)C)[C@H](C)NC1=O [Compound 8],103,
CC[C@H](C)[C@@H]1NC(=O)[C@H](CC(=O)O)NC(=O)[C@H](CC(C)C)NC(=O)C[C@@H](CCCCN)NC(=O)[C@H](Cc2ccccc2)NC(=O)[C@@H]2CCCN2[C@H](C(=O)NC(C)(C)C)[C@H](C)NC1=O [Compound 220],96,18.2
CC(C)C[C@@H]1NC(=O)[C@H]2CCCN2C(=O)[C@H](Cc2cc(F)c(F)c(F)c2)NC(=O)[C@@H]2CCCN2[C@H](C(=O)NC(C)(C)C)[C@H](C)NC(=O)[C@H]([C@@H](C)O)NC(=O)[C@H](CC(=O)O)NC1=O [Compound 128],26,11.4
CC(C)C[C@@H]1NC(=O)c2ccc(Br)c(c2)CNC(=O)[C@H](Cc2ccc(O)cc2)NC(=O)[C@@H]2CCCN2[C@H](C(=O)NC(C)(C)C)[C@H](C)NC(=O)[C@H]([C@@H](C)O)NC(=O)[C@H](CC(=O)O)NC1=O [Compound 336],162,5.6
CC(C)C[C@@H]1NC(=O)[C@H]2CCCCN2C(=O)[C@@H](Cc2cccc(-c3cccc4ncccc34)c2)NC(=O)[C@@H]2CCCN2[C@H](C(=O)NC(C)(C)C)[C@H](C)NC(=O)[C@H]([C@@H](C)O)NC(=O)[C@H](CC(=O)O)NC1=O [Compound 192],118,
CC(C)C[C@@H]1NC(=O)CN(C)C(=O)[C@H](Cc2csc(-c3cccnc3)n2)NC(=O)[C@@H]2CCCN2[C@H](C(=O)NC(C)(C)C)[C@H](C)NC(=O)[C@H]([C@@H](C)O)NC(=O)[C@H](CC(=O)O)NC1=O [Compound 181],,12.6
CC(C)C[C@@H]1NC(=O)C[C@H](CCCCN)NC(=O)[C@H](Cc2ccc(-c3ccccc3)cc2)NC(=O)[C@@H]2CCCN2[C@H](C(=O)NC(C)(C)C)[C@H](C)NC(=O)[C@H]([C@@H](C)O)NC(=O)[C@H](CC(=O)O)NC1=O [Compound 204],63,
CC(C)C[C@@H]1NC(=O)C[C@H](CCCCN)NC(=O)[C@H](Cc2cccc(I)c2)NC(=O)[C@@H]2CCCN2[C@H](C(=O)NC(C)(C)C)[C@H](C)NC(=O)[C@H]([C@@H](C)O)NC(=O)[C@H](CC(=O)O)NC1=O [Compound 255],43,
CCCC[C@H]1NC(=O)[C@H](Cc2ccc(O)cc2)NC(=O)[C@@H]2CCCN2[C@H](C(=O)NC(C)(C)C)[C@H](C)NC(=O)[C@H]([C@@H](C)O)NC(=O)[C@H](CC(=O)O)NC(=O)[C@H](CC(C)C)NC1=O [Compound 155],54,
COc1cccc(Cl)c1-c1cccc(C[C@@H]2NC(=O)[C@@H]3CCCN3[C@H](C(=O)NC(C)(C)C)[C@H](C)NC(=O)[C@H]([C@@H](C)O)NC(=O)[C@H](CC(=O)O)NC(=O)[C@H](CC(C)C)NC(=O)C[C@H](CCCCN)NC2=O)c1 [Compound 298],76,
Cc1noc(C)c1-c1ccccc1C[C@H]1NC(=O)[C@@H]2CCCN2[C@H](C(=O)NC(C)(C)C)[C@H](C)NC(=O)[C@H]([C@@H](C)O)NC(=O)[C@H](CC(=O)O)NC(=O)[C@H](CC(C)C)NC(=O)C[C@H](CCCCN)NC1=O [Compound 276],134,106.2
CC(C)C[C@@H]1NC(=O)[C@H](Cc2ccc(O)cc2)NC(=O)[C@@H]2CCCN2C(C(=O)NC(C)(C)C)C(CSc2ccccc2)NC(=O)[C@H](C(C)C)NC(=O)[C@H](CC(=O)O)NC1=O (stereo partly shown) [Compound 1],,0.988
COc1ccccc1-c1cccc(C[C@@H]2NC(=O)[C@@H]3CCCN3[C@H](C(=O)NC(C)(C)C)[C@H](C)NC(=O)[C@H]([C@@H](C)O)NC(=O)[C@H](CC(=O)O)NC(=O)[C@H](CC(C)C)NC(=O)C[C@H](CCCCN)NC2=O)c1 [Compound 257],58,
C=CCOc1ccc(C[C@@H]2NC(=O)[C@@H]3CCCN3[C@H](C(=O)NC(C)(C)C)[C@H](C)NC(=O)[C@H]([C@@H](C)O)NC(=O)[C@H](CC(=O)O)NC(=O)[C@H](CC(C)C)NC(=O)[C@@H](CO)NC2=O)cc1 [Compound 167],147,13.6
CC(C)C[C@@H]1NC(=O)C[C@H](CCCCN)NC(=O)C2(CCc3ccccc3C2)NC(=O)[C@@H]2CCCN2[C@H](C(=O)NC(C)(C)C)[C@H](C)NC(=O)[C@H]([C@@H](C)O)NC(=O)[C@H](CC(=O)O)NC1=O (stereo partly shown) [Compound 282],119,
Cc1cccc(C)c1-c1ccccc1C[C@@H]1NC(=O)[C@@H]2CCCN2[C@H](C(=O)NC(C)(C)C)[C@H](C)NC(=O)[C@H]([C@@H](C)O)NC(=O)[C@H](CC(=O)O)NC(=O)[C@H](CC(C)C)NC(=O)C[C@H](CCCCN)NC1=O [Compound 272],41,58.1
COc1ccc(-c2ccccc2C[C@@H]2NC(=O)[C@@H]3CCCN3[C@H](C(=O)NC(C)(C)C)[C@H](C)NC(=O)[C@H]([C@@H](C)O)NC(=O)[C@H](CC(=O)O)NC(=O)[C@H](CC(C)C)NC(=O)[C@H]3CCCCN3C2=O)cc1 [Compound 137],33,7.8
